Measurements reported in US20040247699A1, “Method for the prevention or treatment of overweight in mammals” (priority 2002, published 2004).

Experiment: Effects on physical activity (ambulatory counts)
Settings: 12.5 mg caffeine per kg rat oral, period when rats are normally asleep
Experimental: In the study as described in example 1, the physical activity of the animals was determined by monitoring ambulatory counts.
The effects of caffeine on physical activity was tested in rats and compared to placebo (water). In a placebo controlled cross-over design as described in example 1, the effects of administration of either 12.5 mg caffeine per kg of rat or water on physical activity was determined. Physical activity of the animals was determined by monitoring ambulatory counts.
Results are shown as the average ambulatory counts per 26 minutes.

Cn1c(=O)c2c(ncn2C)n(C)c1=O [caffeine]
ambulatory counts per 26 minutes compared to placebo: ambulatory counts increase
